Values joined by “and” are separate entries in the source; they are usually repeats but may differ in a detail not shown here. Identical values can stand only once.
Experiments:
[1] = Ex vivo metabolization in serum, tissue and faeces homogenates; format: in vitro ADME, ICR-CD-1 mice; conditions: UPLC-UV/MS; for T1/2 / Metabolites: 37 °C; for T1/2: first order kinetics
Protocol: Peptide solution (0.1 mg/mL) was incubated with serum, brain, liver, kidney, colon or faeces homogenate at 37 °C. After 0, 5, 10, 30 and 60 min, aliquots were taken for UPLC-UV/MS analysis. Preparation of the tissue homogenates and UPLC-UV/MS parameters are given in supplementary information (Supplementary methods S3-S4). The half-live was calculated using the following equation:4 T1/2=-ln(2)/Slope where the slope is defined by linear regression assuming first order kinetics.
Supplementary method S3: Tissue homogenate preparation
Preparation of Krebs-Henseleit buffer (pH 7.4) (KH-buffer)
The powdered medium was dissolved in 900 mL water while stirring. To this solution, 0.3790 g CaCl2×2H2O and 2.098 g NaHCO3 was subsequently added while stirring. NaOH or HCl was used to adjust to pH 7.4. This solution was then further diluted to 1000 mL using ultrapure […]
Preparation of tissue homogenates
- The liver (n = 1), kidneys (n = 6), brains (n = 3), colons (n = 4) and faeces (0.196 g) of ICR-CD-1 mice were collected.
- After cleaning and rinsing the tissues using ice-cold KH buffer, the tissues were cut in little pieces and transferred into a 50 mL tube to which 36 mL ice-cold KH buffer was added.
- The tissues were then homogenized with at tissue homogenizer.
- After the larger particles were allowed to settle for about 30 minutes at 5°C, approximately 25 mL of the middle layer was transferred into a 50 mL Falcon tube using a plastic pipette.
- After shaking the homogenates, the homogenates were dispensed into 2 mL Eppendorf tubes, and stored at -35°C until use.
- The protein content of the homogenates were determined using the Pierce Modified Lowry […]
- Just before use, the homogenates were diluted to a protein concentration of 0.6 mg/mL (i.e.
300 µg / 500 µL) with KH buffer.
- Into a 1.5 ml Protein LoBind tube, 900 µl of serum/tissue extract (500 µl of homogenate/serum and 400 µl of KH buffer, pH 7.4) was transferred.
- After temperature-equilibration at 37°C for 15 min while shaking at 750 rpm, 100 µl of peptide solution (0.1 mg/mL) was added followed by continued incubation at 37°C (while shaking), with […] aliquots taken after 0, 5, 10, 30 and 60 minutes.
- The aliquots were immediately transferred into 500 µl Protein LoBind Eppendorf tubes containing 100 µl of 1% V/V trifluoroacetic acid solution in water, heated for 5 minutes at 95°C, and cooled for 30 minutes in an ice-bath.
- The samples were then centrifuged at 16,000 g for 5 minutes at 5°C.
- The supernatants was then analyzed by UPLC-UV/MS.
Supplementary method S4: UPLC-UV/MS parameters ex vivo metabolization
The analytical parameters of the UPLC-UV/MS method for the ex vivo metabolization are given […]
Table 3: Analytical parameters of UPLC method […]
Needle wash H2O/ACN/DMSO (45/45/10), post injection (6 s)
Seal wash Methanol/H2O (10/90)

[2] = Multiple time regression (MTR) analysis, blood-to-brain influx; format: in vivo, ICR-CD-1 mice
Protocol: Briefly, 0.1 µmol of the lyophilized peptide was dissolved in 100 µL of phosphate buffer (pH 7.4, 25 mM). A Iodo-Gen coated tube (Thermo Scientific, Merelbeke, Belgium) was first of all rinsed with 1 mL of phosphate buffer. Subsequently, 50 µL of sodium iodide solution (1.1 µmol/mL) and 1 mCi of Na^125I solution (Perking Elmer, Zaventem, Belgium) were transferred into this Iodo-Gen coated tube. The oxidation reaction was allowed to proceed for six minutes at room temperature, after which the iodonium solution was transferred to 50 µL of peptide solution (1 mM). The iodination reaction of the peptide was allowed to proceed for another six minutes at room temperature. Finally, the iodinated peptide was purified using a silver filter (Thermo Scientific, Merelbeke, Belgium).
In order to determine whether the peptide could enter the brain, in vivo multiple time regression (MTR) analysis was performed. ICR-CD-1 mice were anesthetized intraperitoneally using a 40% urethane solution (3 g/kg). […] At specified time points after injection (i.e. 1, 3, 5, 10, 12.5 and 15 min, with start and end in duplicate), blood was obtained from the carotid artery followed by decapitation of the mouse. The isolated brain was weighed and radioactivity measured in a gamma counter for 5 min (Wallac Wizard automatic gamma counter, Perkin Elmer, Shelton, CT, USA), as well as from 50 µL serum, which was obtained by centrifuging the collected blood at 10,000g for 15 min at 21 °C. The linear and biphasic modeling of the multiple time regression analysis was performed as previously described.

BV-2 cells = experiment: Morphological analysis (ameboid versus branched cells); format: cell-based, murine; conditions: 20 h, n = 6
Protocol: We investigated the morphology since microglia change their morphology from a branched structure to a more round, ameboid structure after activation. BV-2 cells were seeded in 1 × 10^4 cells/well in a 24-well plate (360 µL); this way direct cell–cell contacts, which have an influence on morphology, are avoided. Four hours post-seeding, cells were treated with 40 µL peptide, placebo (H2O), medium or positive control (LPS 1 µg/mL). For the assessment of the morphology, one picture in the center of each well (100 × magnification) was taken after twenty hours with an Olympus CKX53 phase-contrast microscope equipped with an XC30 CCD camera (Olympus NV, Antwerp, Belgium). The number of branched and ameboid cells was counted with the cell counter plugin of ImageJ.

Substance: SDLPFEH [PapRIV, heptapeptide (SDLPFEH) quorum sensing peptide originating from the Bacillus cereus group; synthetic, purchased from GL Biochem]
- T1/2 ([1]; mouse brain homogenate 0.6 mg/mL protein in KH buffer pH 7.4, peptide solution 0.1 mg/mL added, 0–60 min): 522.9 min
- Metabolites ([1]; mouse brain homogenate, 0–60 min): DLPFEH, LPFEH
- metabolization in colon tissue ([1]; mouse colon homogenate 0.6 mg/mL protein in KH buffer pH 7.4, 37 °C, 0–60 min): no metabolization was observed
- T1/2 ([1]; mouse faeces homogenate 0.6 mg/mL protein in KH buffer pH 7.4, peptide solution 0.1 mg/mL added, 0–60 min): 89.7 min
- Metabolites ([1]; mouse faeces homogenate, 0–60 min): DLPFEH
- T1/2 ([1]; mouse kidney homogenate 0.6 mg/mL protein in KH buffer pH 7.4, peptide solution 0.1 mg/mL added, 0–60 min): 20 min and 19.8 min
- Metabolites ([1]; mouse kidney homogenate, 0–60 min): DLPFEH, LPFEH
- T1/2 ([1]; mouse liver homogenate 0.6 mg/mL protein in KH buffer pH 7.4, peptide solution 0.1 mg/mL added, 0–60 min): 285.7 min
- Metabolites ([1]; mouse liver homogenate, 0–60 min): DLPFEH, LPFEH
- T1/2 ([1]; serum (500 µl + 400 µl KH buffer pH 7.4 + 100 µl peptide solution 0.1 mg/mL), shaking 750 rpm, aliquots 0, 5, 10, 30, 60 min): 25 min and 24.8 min
- Metabolites ([1]; serum, 0–60 min): DLPFEH, LPFEH, LPFE, LPF, SDLPF, DLPF
- K1 ([2]; 125I-labelled, i.v. (jugular vein), mice, 1–15 min, biphasic model, mean ± standard error): 6.95 ± 6.25 µL/g/min
- initial brain influx rate (Ki) ([2]; 125I-labelled, i.v., mice, biphasic model): 6.95 µL/g/min
- Tissue brain distribution volume, Vg ([2]; 125I-labelled, i.v., mice, biphasic model, mean ± standard error): 35.70 ± 61.73 µL/g
- brain influx class according to the classification system of Stalmans et al. ([2]; classification by influx rate): very high brain influx
- fraction of ameboid cells (BV-2 cells): increased
